Laboratory results as given in PubChem BioAssay (NCI).
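Where inhibition never reached the appropriate level, the endpoint shown equals the highest concentration tested. Otherwise, values were interpolated linearly from a five-concentration, 48-hour dose response in 96-well plates. GI50 = concentration required for 50% inhibition of growth. TGI: concentration producing complete growth inhibition.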

Columns and labels:
Experiment in all cases: NCI tumour cell line growth inhibition, 48 h
SW-620 colon = system: SW-620 colon
A498 renal = system: A498 renal
OVCAR-3 ovarian = system: OVCAR-3 ovarian
MOLT-4 leukemia = system: MOLT-4 leukemia
M14 melanoma = system: M14 melanoma
OVCAR-5 ovarian = system: OVCAR-5 ovarian
K-562 leukemia = system: K-562 leukemia
SNB-19 CNS = system: SNB-19 CNS
HCC-2998 colon = system: HCC-2998 colon
T-47D breast = system: T-47D breast

SMILES: CC1(c2ccc(Cl)cc2)C2C(=O)NC(=O)C1C(=O)NC2=O (stereo not given)
- TGI (SW-620 colon): > 100 µM
- TGI (A498 renal): > 100 µM
- TGI (OVCAR-3 ovarian): > 100 µM
- TGI (MOLT-4 leukemia): > 100 µM
- TGI (M14 melanoma): > 100 µM
- TGI (OVCAR-5 ovarian): > 100 µM
- TGI (K-562 leukemia): > 100 µM
- TGI (SNB-19 CNS): > 100 µM
- TGI (HCC-2998 colon): > 100 µM

SMILES: CN1CCN(CCCOc2cccc3nc(Nc4ccc(Cl)c(C(F)(F)F)c4)ccc23)CC1
- GI50 (T-47D breast): 1.97 µM
- TGI (T-47D breast): 4.52 µM
- GI50 (SW-620 colon): 1.89 µM
- TGI (SW-620 colon): 3.83 µM
- GI50 (A498 renal): 1.68 µM
- TGI (A498 renal): 3.54 µM
- GI50 (OVCAR-3 ovarian): 1.81 µM
- TGI (OVCAR-3 ovarian): 3.31 µM
- GI50 (M14 melanoma): 1.81 µM
- TGI (M14 melanoma): 3.48 µM
- GI50 (OVCAR-5 ovarian): 1.85 µM
- TGI (OVCAR-5 ovarian): 3.41 µM
- GI50 (K-562 leukemia): 1.62 µM
- TGI (K-562 leukemia): 3.34 µM
- GI50 (SNB-19 CNS): 1.64 µM
- TGI (SNB-19 CNS): 3.14 µM
- GI50 (HCC-2998 colon): 1.91 µM
- TGI (HCC-2998 colon): 3.44 µM

SMILES: Brc1ccc2ns[s+]c2c1
- TGI (SW-620 colon): > 100 µM
- TGI (A498 renal): > 100 µM
- TGI (OVCAR-3 ovarian): > 100 µM
- TGI (MOLT-4 leukemia): > 100 µM
- TGI (M14 melanoma): 5.88 µM
- TGI (OVCAR-5 ovarian): > 100 µM
- TGI (K-562 leukemia): > 100 µM
- TGI (SNB-19 CNS): > 100 µM
- TGI (HCC-2998 colon): 25.8 µM

SMILES: Cc1cc(N2CCN(C)CC2)n2nc(-c3ccc(Cl)cc3)nc2n1
- TGI (T-47D breast): > 100 µM
- TGI (SW-620 colon): > 100 µM
- TGI (A498 renal): > 100 µM
- TGI (OVCAR-3 ovarian): > 100 µM
- TGI (MOLT-4 leukemia): > 100 µM
- TGI (M14 melanoma): > 100 µM
- TGI (OVCAR-5 ovarian): > 100 µM
- TGI (K-562 leukemia): > 100 µM
- TGI (SNB-19 CNS): > 100 µM

SMILES: CCCCCCC[CH2][Sn]1([CH2]CCCCCCC)[O]C(=O)c2cccnc2[O]1
- GI50 (SW-620 colon): > 100 µM
- TGI (SW-620 colon): > 100 µM
- GI50 (A498 renal): > 100 µM
- TGI (A498 renal): > 100 µM
- GI50 (OVCAR-3 ovarian): > 100 µM
- TGI (OVCAR-3 ovarian): > 100 µM
- GI50 (MOLT-4 leukemia): > 100 µM
- TGI (MOLT-4 leukemia): > 100 µM
- GI50 (M14 melanoma): > 100 µM
- TGI (M14 melanoma): > 100 µM
- GI50 (OVCAR-5 ovarian): > 100 µM
- TGI (OVCAR-5 ovarian): > 100 µM
- GI50 (K-562 leukemia): > 100 µM
- TGI (K-562 leukemia): > 100 µM
- GI50 (SNB-19 CNS): > 100 µM
- TGI (SNB-19 CNS): > 100 µM
- GI50 (HCC-2998 colon): > 100 µM
- TGI (HCC-2998 colon): > 100 µM

SMILES: O=S(=O)(c1cnccc1N1CCN(CCO)CC1)N1CCCC1
- TGI (T-47D breast): > 100 µM
- TGI (SW-620 colon): > 100 µM
- TGI (A498 renal): > 100 µM
- TGI (OVCAR-3 ovarian): > 100 µM
- TGI (M14 melanoma): > 100 µM
- TGI (OVCAR-5 ovarian): > 100 µM
- TGI (K-562 leukemia): > 100 µM
- TGI (SNB-19 CNS): > 100 µM
- TGI (HCC-2998 colon): > 100 µM

SMILES: NC(=O)NC1C(C(N)=O)N(Cc2ccccc2)C(=O)N1Cc1ccccc1 (stereo not given)
- TGI (SW-620 colon): > 100 µM
- TGI (OVCAR-3 ovarian): > 100 µM
- TGI (MOLT-4 leukemia): > 100 µM
- TGI (M14 melanoma): > 100 µM
- TGI (OVCAR-5 ovarian): > 100 µM
- TGI (K-562 leukemia): > 100 µM
- TGI (SNB-19 CNS): > 100 µM
- TGI (HCC-2998 colon): > 100 µM

SMILES: CCOC(=O)C1(C)CCCCC(=O)N1 (stereo not given)
- TGI (SW-620 colon): > 100 µM
- TGI (OVCAR-3 ovarian): > 100 µM
- TGI (M14 melanoma): > 100 µM
- TGI (K-562 leukemia): > 100 µM
- TGI (SNB-19 CNS): > 100 µM
- TGI (HCC-2998 colon): > 100 µM

SMILES: COc1cc2nc3cc([N+](=O)[O-])ccc3c(NCCNCC(C)(C)O)c2cc1OC
- GI50 (T-47D breast): 0.437 µM
- TGI (T-47D breast): 2.91 µM
- GI50 (SW-620 colon): 0.54 µM
- TGI (SW-620 colon): 4.07 µM
- GI50 (A498 renal): 1.83 µM
- TGI (A498 renal): 3.63 µM
- GI50 (OVCAR-3 ovarian): 0.373 µM
- TGI (OVCAR-3 ovarian): 1.3 µM
- GI50 (MOLT-4 leukemia): 0.354 µM
- TGI (MOLT-4 leukemia): 10.7 µM
- GI50 (M14 melanoma): 1.29 µM
- TGI (M14 melanoma): 3.05 µM
- GI50 (OVCAR-5 ovarian): 2.22 µM
- TGI (OVCAR-5 ovarian): 8.87 µM
- GI50 (SNB-19 CNS): 0.472 µM
- TGI (SNB-19 CNS): 2.83 µM

SMILES: ClC(Cl)[Si]12OCCN(CCO1)CCO2
- TGI (SW-620 colon): > 100 µM
- TGI (A498 renal): > 100 µM
- TGI (OVCAR-3 ovarian): > 100 µM
- TGI (MOLT-4 leukemia): > 100 µM
- TGI (OVCAR-5 ovarian): > 100 µM
- TGI (K-562 leukemia): > 100 µM
- TGI (SNB-19 CNS): > 100 µM
- TGI (HCC-2998 colon): > 100 µM

SMILES: O=C1c2ccccc2C(=O)c2c(OCCOCCO)cccc21
- TGI (T-47D breast): > 100 µM
- TGI (SW-620 colon): > 100 µM
- TGI (OVCAR-3 ovarian): > 100 µM
- TGI (MOLT-4 leukemia): > 100 µM
- TGI (M14 melanoma): > 100 µM
- TGI (OVCAR-5 ovarian): > 100 µM
- TGI (K-562 leukemia): > 100 µM
- TGI (SNB-19 CNS): > 100 µM

SMILES: Cn1nc(-c2ccccc2)c2c(/C=C/c3ccccc3)onc2c1=O
- TGI (A498 renal): > 100 µM
- TGI (OVCAR-3 ovarian): > 100 µM
- TGI (MOLT-4 leukemia): > 100 µM
- TGI (M14 melanoma): > 100 µM
- TGI (OVCAR-5 ovarian): > 100 µM
- TGI (K-562 leukemia): > 100 µM
- TGI (SNB-19 CNS): > 100 µM
- TGI (HCC-2998 colon): > 100 µM

SMILES: Nc1ncnc2c1ncn2C1OC(CO)C(O)C1N (stereo not given)
- TGI (T-47D breast): > 100 µM
- TGI (SW-620 colon): > 100 µM
- TGI (A498 renal): > 100 µM
- TGI (OVCAR-3 ovarian): > 100 µM
- TGI (MOLT-4 leukemia): > 100 µM
- TGI (M14 melanoma): > 100 µM
- TGI (OVCAR-5 ovarian): > 100 µM
- TGI (K-562 leukemia): > 100 µM
- TGI (SNB-19 CNS): > 100 µM

SMILES: CCN1CCN(C(=O)[C@]23CCC(C)(C)C[C@@H]2C2=CC[C@@H]4[C@@]5(C)C/C(=C/c6ccncc6)C(=O)C(C)(C)[C@@H]5CC[C@@]4(C)[C@]2(C)CC3)CC1
- GI50 (SW-620 colon): 1.48 µM
- TGI (SW-620 colon): 3.14 µM
- GI50 (A498 renal): 1.7 µM
- TGI (A498 renal): 3.1 µM
- GI50 (OVCAR-3 ovarian): 1.49 µM
- TGI (OVCAR-3 ovarian): 2.91 µM
- GI50 (M14 melanoma): 1.54 µM
- TGI (M14 melanoma): 3.17 µM
- GI50 (OVCAR-5 ovarian): 1.66 µM
- TGI (OVCAR-5 ovarian): 3.15 µM
- GI50 (K-562 leukemia): 1.6 µM
- TGI (K-562 leukemia): > 100 µM
- GI50 (SNB-19 CNS): 1.48 µM
- TGI (SNB-19 CNS): 2.86 µM
- GI50 (HCC-2998 colon): 1.47 µM
- TGI (HCC-2998 colon): 2.89 µM

SMILES: CN(c1ccccc1)c1c(Cl)c(=O)oc2c1ccc1occc12
- TGI (SW-620 colon): > 100 µM
- TGI (A498 renal): > 100 µM
- TGI (OVCAR-3 ovarian): > 100 µM
- TGI (MOLT-4 leukemia): > 100 µM
- TGI (M14 melanoma): > 100 µM
- TGI (OVCAR-5 ovarian): > 100 µM
- TGI (K-562 leukemia): > 100 µM
- TGI (SNB-19 CNS): > 100 µM
- TGI (HCC-2998 colon): > 100 µM
